Results: patent US4018765A, “Process for the preparation of certain hydroperoxy derivatives” (Hoffmann-La Roche Inc., priority 1975, dated 1977)
Like-named read-outs stand apart in the source and are kept apart here.

Experiments:
Format in all cases: in vivo
mice [1] = assay: psychostimulant activity (pharmacological tests in animals such as mice); conditions: similarly tested
Method: (§1) As has been indicated hereinabove the novel end products of this invention, i.e., the compounds of formula I and their pharmaceutically acceptable acid addition salts and the compounds of formula II-d and their pharmaceutically acceptable acid addition salts, are useful as psychostimulants. When administered, for example, orally, or animals such as mice they produce a direct-acting stimulant effect of long duration in single doses in amounts ranging from 0.03 mg/kg to 50 mg/kg. […] Exp. Path. and Pharm., Vol. 140, page 237). The compounds of this invention have psychostimulant effects qualitatively similar in many respect to those of imipramine and amphetamine which are wellknown for their therapeutic uses and properties.

[2] = test system: effects of β-(3,4-dihydroxyphenyl)-α-alanine (DOPA) in mice; assay: DOPA potentiation test in mice; conditions: Mus musculus, ip
Method: as §1

mice [3] = assay: writhing test in mice (analgesic); conditions: p.o.
Method: (§2) In addition to their use as psychostimulants, the compounds of formulas I and II-d are also useful as analgesic agents. […] For example, 2-(2-benzoylphenyl)-2-imadazoline in dogs at 4 mg/kg i.v. produced an increase in blood pressure of 10 mm. Hg after 2 minutes followed by gradual increase to 25 mm. Hg.

dogs = assay: blood pressure in dogs; conditions: 4 mg/kg i.v.
Method: as §2

unanesthetized cat = unanesthetized cat test for muscle relaxants; conditions: p.o.
Method: as §2

animals = assay: analgesic properties (pharmacological tests in animals); conditions: based on the pharmacological tests in animals
Method: as §2

[4] = test system: ptosis induced by tetrabenzene in mice; assay: prevention of ptosis induced by tetrabenzene (tetrabenazene) in mice; conditions: Mus musculus, po, read-out: dose that prevented the ptosis induced by tetrabenzene
Method: as §1

[5] = test system: hypothermia induced by reserpine in mice; assay: reversal of hypothermia induced by reserpine in mice; conditions: Mus musculus, po, reserpine 10 mg/kg s.c., read-out: dose that reversed the hypothermia and hypometabolic effects induced by reserpine
Method: as §1

[6] = mice, i.p., read-out: dose that potentiated the effects of DOPA
[7] = comparison drugs, read-out: dose showing psychostimulant activity in the DOPA potentiation test

## COc1ccc(C2(O)c3ccccc3C3=NCCN32)cc1 (centres unmarked) [2,3-dihydro-5-hydroxy-5-(4-methoxyphenyl)-5H-imidazo[2,1-a]-isoindole]
Mice [1]
  psychostimulant test result relative to 2-(2-benzoylphenyl)-2-imidazoline: qualitatively similar to 2-(2-benzoylphenyl)-2-imidazoline

## OC1(c2ccc(Cl)cc2)c2ccccc2C2=NCCN21 (centres unmarked) [5-(4-chlorophenyl)-2,3-dihydro-5-hydroxy-5H-imidazo[2,1-a]-isoindole]
Mice [1]
  psychostimulant test result relative to 2-(2-benzoylphenyl)-2-imidazoline: qualitatively similar to 2-(2-benzoylphenyl)-2-imidazoline

## O=C(c1ccccc1)c1ccccc1C1=NCCN1 [Example 10, 2-(2-benzoylphenyl)-2-imidazoline]
[2]; [6]
  minimal effective dose: 6.25 mg/kg
Mice [3]
  dose with marked activity in the writhing test: 30.8 mg/kg
dogs; after 2 minutes
  increase in blood pressure after 2 minutes: 10 mm. Hg
dogs; gradual increase after the first 2 minutes
  increase in blood pressure, following gradual increase: 25 mm. Hg
Unanesthetized cat
  dose active in the unanesthetized cat test for muscle relaxants: 2.5 mg/kg
animals
  analgesic properties relative to phenylbutazone: can be likened to the analgesic properties of phenylbutazone
[4]
  minimal effective dose: 0.06 mg/kg

## COC1(c2ccccc2)c2ccccc2C2=NCCN21 (centres unmarked) [Example 19, 2,3-dihydro-5-methoxy-5-phenyl-5H-imidazo[2,1-a]isoindole]
Mice [1]
  psychostimulant test result relative to 2-(2-benzoylphenyl)-2-imidazoline: qualitatively similar to 2-(2-benzoylphenyl)-2-imidazoline

## OC1(c2ccccc2)c2ccccc2C2=NCCCCN21 (centres unmarked) [Example 21, 2,3,4,5-tetrahydro-7-hydroxy-7-phenyl-7H-diazepino-[2,1-a]isoindole]
[2]; [6]
  minimal effective dose: 7.5 mg/kg
[5]
  minimal effective dose: 25 mg/kg

## CC(N)Cc1ccccc1 (centres unmarked) [amphetamine, reference compound]
[2]; [7]
  minimal effective dose: 1 mg/kg

## CN(C)CCCN1c2ccccc2CCc2ccccc21 [imipramine, reference compound]
[2]; [7]
  minimal effective dose: 10 mg/kg
